From article PMC7539012, “Hyperphosphorylated tau aggregation and cytotoxicity modulators screen identified prescription drugs linked to Alzheimer's disease and cognitive functions” (Scientific Reports, 2020)
Where a name gives a salt, the structure may show the parent alone.

tested on: T1, 1N4R p-tau; assay: p-tau aggregation modulator screen of 1280-compound library (ThS fluorescence net change over 16 h); format: biochemical; parameters: key to PTAI>3SD: *: PTAI>3SD; settings: not given;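 as to ThS net change: 30 µM compound with 6 µM p-tau over 16 h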
T1 construct: made in house; host or cells: E. coli (PIMAX system)

Compound | ThS net change
C=C(NC(=O)C(=C)NC(=O)c1csc(C2=N[C@@H]3c4csc(n4)[C@H]4NC(=O)c5csc(n5)[C@H]([C@](C)(O)[C@@H](C)O)NC(=O)[C@H]5CSC(=N5)/C(=C/C)NC(=O)[C@H]([C@@H](C)O)NC(=O)c5csc(n5)[C@]3(CC2)NC(=O)[C@H](C)NC(=O)C(=C)NC(=O)[C@H](C)NC(=O)[C@H]([C@@H](C)CC)N[C@@H]2C=Cc3c([C@H](C)O)cc(nc3[C@H]2O)C(=O)O[C@@H]4C)n1)C(N)=O [Thiostrepton] | 503
CC(=O)[C@H]1CC[C@H]2[C@@H]3CC[C@H]4C[C@H](O)CC[C@]4(C)[C@H]3C(=O)C[C@]12C [Alfaxalone] | 420
CCN(C)C(=O)Oc1cccc([C@H](C)N(C)C)c1 [Rivastigmine] | 462
CCC1(C)CC(=O)NC(=O)C1 [Bemegride] | 431
NC(=O)OCCCc1ccccc1 [Phenprobamate] | 323

same assay, conditions: 1280-compound library screen; ThS fluorescence net change over 16 h

Compound | ThS net change
C[C@@H]1[C@H](O)[C@@H](C)/C=C/C=C/C=C/C=C/C=C/C=C/C=C/[C@H](O[C@@H]2O[C@H](C)[C@@H](O)[C@H](N)[C@@H]2O)C[C@@H]2O[C@](O)(C[C@@H](O)C[C@@H](O)[C@H](O)CC[C@@H](O)C[C@@H](O)CC(=O)O[C@H]1C)C[C@H](O)[C@H]2C(=O)O [Amphotericin B] | 396
Nc1ccn([C@H]2CC[C@@H](CO)O2)c(=O)n1 [Zalcitabine] | 410
CC(C)C[C@H](NC(=O)[C@@H](O)[C@H](N)Cc1ccccc1)C(=O)O [Ubenimex] | 390
CSc1nc2cc(Cl)c(Oc3cccc(Cl)c3Cl)cc2[nH]1 [Triclabendazole] | 382
N[C@@H]1CON=C1O [D-cycloserine] | 405
CCCN(CCC)CCc1cccc2c1CC(=O)N2 [Ropinirole HCl] | 388
C[C@]12CCC(=O)C=C1CC[C@@H]1[C@@H]2[C@@H](O)C[C@@]2(C)[C@H]1CC[C@]2(O)C(=O)CO [Hydrocortisone base] | 398
Nc1ncnc2c1ncn2[C@@H]1O[C@H](CO)[C@@H](O)[C@@H]1O [Vidarabine] | 401
CCc1ccc(CCOc2ccc(CC3SC(=O)NC3=O)cc2)nc1 (centres unmarked) [Pioglitazone] | 410
CN(c1nccc(=O)[nH]1)C1CCN(c2nc3ccccc3n2Cc2ccc(F)cc2)CC1 [Mizolastine] | 390
CCCCOC(=O)c1ccc(N)cc1 [Butamben] | 387
CC1CNc2c(cccc2S(=O)(=O)N[C@@H](CCCNC(=N)N)C(=O)N2CC[C@@H](C)C[C@@H]2C(=O)O)C1 (some centres unmarked) [Argatroban] | 388
CCCCNC(=O)NS(=O)(=O)c1ccc(C)cc1 [Tolbutamide] | 392

same assay, conditions: 1280-compound library screen; […]

Compound | ThS net change
C#CCN(C)[C@H](C)Cc1ccccc1 [Selegiline hydrochloride] | 388
C[C@]12CC[C@H]3C(=CCc4cc(O)ccc43)[C@@H]1CCC2=O [Equilin] | 389
O=C(O)CCCc1ccc(N(CCCl)CCCl)cc1 [Chlorambucil] | 386
CNC(=O)Oc1ccc2c(c1)[C@]1(C)CCN(C)[C@@H]1N2C [Eserine hemisulfate salt] | 395
Nc1ccc(S(=O)(=O)[N-]c2cnc3ccccc3n2)cc1.[Na+] [Sulfaquinoxaline sodium salt] | 398

same assay, conditions: flag: p-tau aggregation inhibitor, ThS net change more than 3 SD from mean

Compound | PTAI>3SD
COc1cc(-c2ccc(/N=N/c3ccc4c(S(=O)(=O)[O-])cc(S(=O)(=O)[O-])c(N)c4c3O)c(OC)c2)ccc1/N=N/c1ccc2c(S(=O)(=O)[O-])cc(S(=O)(=O)[O-])c(N)c2c1O.[Na+].[Na+].[Na+].[Na+] [Chicago sky blue 6B] | *

same assay, conditions: library screen, ThS fluorescence net change over 16 h with p-tau

Compound | ThS net change
COc1cc(-c2ccc(/N=N/c3ccc4c(S(=O)(=O)[O-])cc(S(=O)(=O)[O-])c(N)c4c3O)c(OC)c2)ccc1/N=N/c1ccc2c(S(=O)(=O)[O-])cc(S(=O)(=O)[O-])c(N)c2c1O.[Na+].[Na+].[Na+].[Na+] [Chicago sky blue 6B] | 11
Nc1nc(N)nc(-c2cc(Cl)ccc2Cl)n1 [Irsogladine maleate] | 308
CN(Cc1cnc2nc(N)nc(N)c2n1)c1ccc(C(=O)N[C@@H](CCC(=O)O)C(=O)O)cc1 [Methotrexate] | 326
Cc1cc(-c2ccccc2)nnc1NCCN1CCOCC1 [Minaprine dihydrochloride] | 294
Cc1ccc(C(=O)c2cc(O)c(O)c([N+](=O)[O-])c2)cc1 [Tolcapone] | 214
CCCN1C[C@H](CSC)C[C@@H]2c3cccc4[nH]cc(c34)C[C@H]21 [Pergolide mesylate] | 279
CC1CCc2cc(F)cc3c(=O)c(C(=O)O)cn1c23 (centres unmarked) [Flumequine] | 303
CCN(CCCCOC(=O)c1ccc(OC)c(OC)c1)C(C)Cc1ccc(OC)cc1 (centres unmarked) [Mebeverine hydrochloride] | 295
O=C1Cc2cc(CCN3CCN(c4nsc5ccccc45)CC3)c(Cl)cc2N1 [Ziprasidone Hydrochloride] | 293
O=C1NCN(c2ccccc2)C12CCN(CCCC(c1ccc(F)cc1)c1ccc(F)cc1)CC2 [Fluspirilen] | 258
CC(=O)CCCCn1c(=O)c2c(ncn2C)n(C)c1=O [Pentoxifylline] | 314
CC[C@H]1OC(=O)[C@H](C)[C@@H](O[C@H]2C[C@@](C)(OC)[C@@H](O)[C@H](C)O2)[C@H](C)[C@@H](O[C@@H]2O[C@H](C)C[C@H](N(C)C)[C@H]2O)[C@](C)(O)C[C@@H](C)C(=O)[C@H](C)[C@@H](O)[C@]1(C)O [Erythromycin] | 314
C[C@H](N)[C@H](O)c1cccc(O)c1 [Metaraminol bitartrate] | 321

same assay, conditions: p-tau aggregation modulator screen of 1280-compound library; ThS fluorescence net change

Compound | ThS net change
COc1cc(Cc2cnc(N)nc2N)cc(OC)c1OC [Trimethoprim] | 360
COC(=O)[C@H]1[C@H]2C[C@@H]3c4[nH]c5cc(OC)ccc5c4CCN3C[C@H]2C[C@@H](OC(=O)c2cc(OC)c(OC)c(OC)c2)[C@@H]1OC [Reserpine] | 355
CNC[C@H](O)[C@@H](O)[C@H](O)[C@H](O)CO [Meglumine] | 368
CC(=O)OCC(=O)[C@@]1(O)CC[C@H]2[C@@H]3CCC4=CC(=O)CC[C@]4(C)[C@H]3[C@@H](O)C[C@@]21C [Cortisol acetate] | 369
Cc1cn[nH]c1 [Fomepizole] | 344
CC(C)(C)NCC(O)COc1cccc2c1CCC(=O)N2 (centres unmarked) [Carteolol hydrochloride] | 377
Cc1c(-c2ccccc2)oc2c(C(=O)OCCN3CCCCC3)cccc2c1=O [Flavoxate hydrochloride] | 359
NS(=O)(=O)c1cc2c(cc1Cl)N=CNS2(=O)=O [Chlorothiazide] | 359
CCCOc1ccccc1-c1nc2nn[nH]c2c(=O)[nH]1 [Zaprinast] | 335
c1ccc(CC2=NCCN2)cc1 [Tolazoline hydrochloride] | 360
CN1CCN(C2=Nc3cc(Cl)ccc3Nc3ccccc32)CC1 [Clozapine] | 368
CN1CCN(C2=Nc3ccccc3Oc3ccc(Cl)cc32)CC1 [Loxapine succinate] | 358
CCn1cc(C(=O)O)c(=O)c2cc(F)c(N3CCNCC3)cc21 [Norfloxacin] | 340
O=C1C(CC[S+]([O-])c2ccccc2)C(=O)N(c2ccccc2)N1c1ccccc1 (centres unmarked) [Sulfinpyrazone] | 342

same assay, conditions: p-tau aggregation modulator screen of 1280-compound library; […]

Compound | ThS net change
Cc1cc2c(s1)Nc1ccccc1N=C2N1CCN(C)CC1 [Olanzapine] | 345
Clc1ccc(C(Cn2ccnc2)OCc2csc3c(Cl)cccc23)c(Cl)c1 (centres unmarked) [Sertaconazole nitrate] | 344
CN1C[C@H](C(=O)N[C@]2(C)O[C@@]3(O)[C@@H]4CCCN4C(=O)[C@H](Cc4ccccc4)N3C2=O)CC2c3cccc4[nH]cc(c34)C[C@H]21.CN1C[C@H](C(=O)N[C@]2(C)O[C@@]3(O)[C@@H]4CCCN4C(=O)[C@H](Cc4ccccc4)N3C2=O)C[C@@H]2c3cccc4[nH]cc(c34)C[C@H]21.O=C(O)C(O)C(O)C(=O)O (some centres unmarked) [Dihydroergotamine tartrate] | 342
C[C@]12COC(=O)C[C@@H]1CC[C@@H]1[C@@H]2CC[C@@]2(C)[C@H]1CC[C@]2(C)O [Oxandrolone] | 338
C=CCC1(CC(C)C)C(=O)NC(=O)NC1=O [Butalbital] | 374
Cl.O[C@@H]1CCCC[C@H]1N1CCC(c2ccccc2)CC1 [L(-)-vesamicol hydrochloride] | 360

same assay, conditions: p-tau aggregation modulator screen of the compound library, ThS fluorescence net change

Compound | ThS net change
C[C@@H](O[C@H]1OCCN(Cc2n[nH]c(=O)[nH]2)[C@H]1c1ccc(F)cc1)c1cc(C(F)(F)F)cc(C(F)(F)F)c1 [Aprepitant] | 451
O=C(CCCN1CCC(n2c(O)nc3ccccc32)CC1)c1ccc(F)cc1 [Benperidol] | 416
COc1nc(C)nc(Cl)c1N=C1NCCN1 [Moxonidine] | 433
CCc1nn(CCCN2CCN(c3cccc(Cl)c3)CC2)c(=O)n1CCOc1ccccc1 [Nefazodone HCl] | 454
CN(C)C(=N)N=C(N)N [Metformin hydrochloride] | 415
Cn1c(NCCN(CCO)CCCc2ccc([N+](=O)[O-])cc2)cc(=O)n(C)c1=O [Nifekalant] | 438
CCCc1cc(=O)[nH]c(=S)[nH]1 [Propylthiouracil] | 422
O=C(O)CNC(=O)C(CS)Cc1ccccc1 (centres unmarked) [Thiorphan] | 462
C[C@]1(Cn2ccnn2)[C@H](C(=O)O)N2C(=O)C[C@H]2S1(=O)=O [Tazobactam] | 834
CC(=O)N[C@@H](CS)C(=O)O [Acetylcysteine] | 423
CC(C)(C(=O)O)c1ccc(C(O)CCCN2CCC(C(O)(c3ccccc3)c3ccccc3)CC2)cc1 (centres unmarked) [Fexofenadine HCl] | 435
COCC1=C(C(=O)OC(C)OC(=O)OC(C)C)N2C(=O)[C@@H](NC(=O)/C(=N\OC)c3csc(N)n3)[C@H]2SC1 (some centres unmarked) [Cefpodoxime proxetil] | 454
CCOc1ccc2c(c1)C(C)=CC(C)(C)N2 [Ethoxyquin] | 460
CC(C)OC(=O)CCC/C=C\C[C@@H]1[C@@H](CC[C@@H](O)CCc2ccccc2)[C@H](O)C[C@@H]1O [Latanoprost] | 519
